Reference: ChEMBL document CHEMBL1201862, “PubChem BioAssay data set” (2004)
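Step 1: Grow cells in 96-well plates. Step 2: Expose to compound for 48 hours at 5 concentrations. Step 3: Interpolate endpoints linearly; if unreached, use highest concentration. At the GI50, growth is halved.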 Active and inactive are the calls of the source. Cut-off read from the data, not from the text of the source: active = GI50 up to about 1.1 µM and inactive = higher.

Assays:
Test in all cases: DTP human tumour cell line panel, 48 h
786-0 = tested on: 786-0
ACHN = tested on: ACHN
CCRF-CEM = tested on: CCRF-CEM
DLD-1 = tested on: DLD-1
HOP-62 = tested on: HOP-62
HOP-92 = tested on: HOP-92
KM12 = tested on: KM12
M19-MEL = tested on: M19-MEL
NCI-H226 = tested on: NCI-H226
OVCAR-5 = tested on: OVCAR-5
OVCAR-8 = tested on: OVCAR-8
RXF 393 = tested on: RXF 393
SK-MEL-2 = tested on: SK-MEL-2
SK-OV-3 = tested on: SK-OV-3
TK-10 = tested on: TK-10
NCI-H460 = tested on: NCI-H460

Measured: GI50

CC(=O)N1CCC2(c3ccccc3N(C(C)=O)C2c2ccc(O)cc2)C1C(=O)O (stereo unspecified)
inactive: 786-0 > 100 µM | ACHN > 100 µM | CCRF-CEM > 100 µM | DLD-1 > 100 µM | HOP-62 > 100 µM | HOP-92 > 100 µM | KM12 > 100 µM | M19-MEL > 100 µM | NCI-H226 > 100 µM | OVCAR-5 > 100 µM | OVCAR-8 > 100 µM | RXF 393 > 100 µM | SK-MEL-2 > 100 µM | SK-OV-3 > 100 µM | TK-10 > 100 µM

CC1=CC=NN2C(=O)[C@H](C)C2C1 (stereo partly specified)
inactive: 786-0 > 100 µM | ACHN > 100 µM | CCRF-CEM > 100 µM | DLD-1 > 100 µM | HOP-62 > 100 µM | HOP-92 > 100 µM | KM12 > 100 µM | M19-MEL > 100 µM | NCI-H226 > 100 µM | NCI-H460 > 100 µM | OVCAR-5 > 100 µM | OVCAR-8 > 100 µM | RXF 393 > 100 µM | SK-MEL-2 > 100 µM | SK-OV-3 > 100 µM | TK-10 > 100 µM

O=c1[nH]c(=O)n(C2CC(O)C(CO)O2)cc1/C=C/Br (stereo unspecified)
inactive: 786-0 > 100 µM | ACHN > 100 µM | CCRF-CEM > 100 µM | DLD-1 > 100 µM | HOP-62 > 100 µM | HOP-92 > 100 µM | KM12 > 100 µM | M19-MEL > 100 µM | NCI-H226 > 100 µM | NCI-H460 > 100 µM | OVCAR-5 > 100 µM | OVCAR-8 > 100 µM | RXF 393 > 100 µM | SK-MEL-2 > 100 µM | SK-OV-3 > 100 µM | TK-10 > 100 µM

N#CC1CC2(CCN1C(=O)c1ccccc1)OCCO2 (stereo unspecified)
inactive: 786-0 > 100 µM | ACHN > 100 µM | CCRF-CEM > 100 µM | DLD-1 > 100 µM | HOP-62 > 100 µM | HOP-92 > 100 µM | KM12 > 100 µM | M19-MEL > 100 µM | NCI-H226 > 100 µM | NCI-H460 > 100 µM | OVCAR-5 > 100 µM | OVCAR-8 > 100 µM | RXF 393 > 100 µM | SK-MEL-2 > 100 µM | SK-OV-3 > 100 µM | TK-10 > 100 µM

CNC(=O)OCc1nc(SSc2nc(COC(=O)NC)c(COC(=O)NC)n2C)n(C)c1COC(=O)NC
inactive: 786-0 > 100 µM | ACHN > 100 µM | CCRF-CEM > 100 µM | DLD-1 > 100 µM | HOP-62 > 100 µM | HOP-92 > 100 µM | KM12 > 100 µM | M19-MEL > 100 µM | NCI-H226 > 100 µM | NCI-H460 > 100 µM | OVCAR-5 > 100 µM | OVCAR-8 > 100 µM | RXF 393 > 100 µM | SK-MEL-2 > 100 µM | SK-OV-3 > 100 µM | TK-10 > 100 µM

C/C(=N\NC(N)=S)c1ccc2c(c1)OCO2
inactive: 786-0 > 100 µM | ACHN > 100 µM | CCRF-CEM 56.8 µM | DLD-1 61.9 µM | HOP-62 > 100 µM | HOP-92 > 100 µM | KM12 > 100 µM | M19-MEL > 100 µM | NCI-H226 > 100 µM | NCI-H460 > 100 µM | OVCAR-5 > 100 µM | OVCAR-8 > 100 µM | RXF 393 > 100 µM | SK-MEL-2 > 100 µM | SK-OV-3 > 100 µM | TK-10 > 100 µM

N#COc1ccc(Oc2ccccc2)cc1
inactive: 786-0 34.6 µM | ACHN 29.2 µM | CCRF-CEM 24.5 µM | DLD-1 > 100 µM | HOP-62 55.7 µM | HOP-92 43.8 µM | KM12 > 100 µM | M19-MEL > 100 µM | NCI-H226 > 100 µM | NCI-H460 43.2 µM | OVCAR-5 > 100 µM | OVCAR-8 49.5 µM | RXF 393 > 100 µM | SK-MEL-2 74.3 µM | SK-OV-3 > 100 µM | TK-10 > 100 µM

CN(C)c1ccc(/C=c2/sc3nc(=O)c(-c4ccccc4NC(=O)C(F)(F)F)nn3c2=O)cc1
inactive: 786-0 > 100 µM | ACHN > 100 µM | CCRF-CEM > 100 µM | DLD-1 > 100 µM | HOP-62 > 100 µM | HOP-92 77.4 µM | KM12 > 100 µM | M19-MEL > 100 µM | NCI-H226 26.4 µM | NCI-H460 > 100 µM | OVCAR-5 > 100 µM | OVCAR-8 > 100 µM | RXF 393 > 100 µM | SK-MEL-2 > 100 µM | SK-OV-3 > 100 µM | TK-10 > 100 µM

CC(=O)OC1(C#N)CC2OC1C1C2N1C(=O)OC(C)(C)C (stereo unspecified)
inactive: 786-0 > 100 µM | ACHN > 100 µM | CCRF-CEM > 100 µM | DLD-1 > 100 µM | HOP-62 > 100 µM | HOP-92 > 100 µM | M19-MEL > 100 µM | NCI-H226 > 100 µM | NCI-H460 > 100 µM | OVCAR-5 > 100 µM | OVCAR-8 > 100 µM | RXF 393 > 100 µM | SK-MEL-2 > 100 µM | SK-OV-3 > 100 µM | TK-10 > 100 µM

CNCCCCN(C)/[N+]([O-])=N\O
inactive: 786-0 > 100 µM | ACHN > 100 µM | CCRF-CEM > 100 µM | DLD-1 > 100 µM | HOP-62 > 100 µM | HOP-92 > 100 µM | KM12 > 100 µM | M19-MEL > 100 µM | NCI-H226 > 100 µM | NCI-H460 > 100 µM | OVCAR-5 > 100 µM | OVCAR-8 > 100 µM | RXF 393 > 100 µM | SK-MEL-2 > 100 µM | SK-OV-3 > 100 µM

O=C(c1c(O)cc(O)cc1O)C1Cc2ccccc21 (stereo unspecified)
inactive: 786-0 31.8 µM | ACHN > 100 µM | CCRF-CEM > 100 µM | DLD-1 > 100 µM | HOP-62 45.2 µM | HOP-92 19.1 µM | KM12 > 100 µM | M19-MEL > 100 µM | NCI-H226 > 100 µM | NCI-H460 82.4 µM | OVCAR-5 > 100 µM | OVCAR-8 39.2 µM | RXF 393 76 µM | SK-MEL-2 > 100 µM | SK-OV-3 > 100 µM | TK-10 > 100 µM

COc1ccc2c3c1C(=O)CCCC3CO2 (stereo unspecified)
inactive: 786-0 > 100 µM | ACHN > 100 µM | CCRF-CEM > 100 µM | DLD-1 > 100 µM | HOP-62 > 100 µM | HOP-92 > 100 µM | KM12 > 100 µM | M19-MEL > 100 µM | NCI-H226 > 100 µM | NCI-H460 > 100 µM | OVCAR-5 > 100 µM | OVCAR-8 > 100 µM | RXF 393 > 100 µM | SK-MEL-2 > 100 µM | SK-OV-3 > 100 µM | TK-10 > 100 µM

O=C1CCC2(c3ccc(Cl)cc3)Nc3ncccc3N12 (stereo unspecified)
inactive: 786-0 > 100 µM | ACHN > 100 µM | CCRF-CEM > 100 µM | DLD-1 > 100 µM | HOP-62 > 100 µM | HOP-92 > 100 µM | KM12 > 100 µM | M19-MEL > 100 µM | NCI-H226 > 100 µM | NCI-H460 > 100 µM | OVCAR-5 > 100 µM | OVCAR-8 > 100 µM | RXF 393 > 100 µM | SK-MEL-2 > 100 µM | SK-OV-3 > 100 µM | TK-10 > 100 µM

COc1nc(NC2OC(COC(C)=O)C(OC(C)=O)C(OC(C)=O)C2OC(C)=O)c(/N=C(\C)C(C)=O)c(=O)n1C (stereo unspecified)
inactive: 786-0 > 100 µM | ACHN > 100 µM | CCRF-CEM > 100 µM | DLD-1 > 100 µM | HOP-62 > 100 µM | HOP-92 > 100 µM | KM12 > 100 µM | M19-MEL > 100 µM | NCI-H226 > 100 µM | NCI-H460 > 100 µM | OVCAR-5 > 100 µM | OVCAR-8 > 100 µM | RXF 393 > 100 µM | SK-MEL-2 > 100 µM | SK-OV-3 > 100 µM | TK-10 > 100 µM
